The text below walks through data of US10307410B2, “Mcl-1 modulating compounds for cancer treatment” (CENTRE REGIONAL DE LUTTE CONTRE LE CANCER FRANCOIS BACLESSE, priority 2014, dated 2019).

The test system of test [1] is IGROV1-R10 ovarian cancer cells. Kind of test: Nuclear morphology after DAPI staining. Format: cell-based. Details: key to Apoptotic nuclear features: +: a few condensed or fragmented nuclei are observable after DAPI staining; ++: numerous condensed or fragmented nuclei are observable after DAPI staining (20-50%); +++: most of the nuclei are condensed or fragmented. The method, then: (§1) Exponentially growing cells were transfected by siRNA as described below, and after 48 h, cells were continuously exposed to (Het)aromatic oligosystems (10, 25 or 50 μM) dissolved in DMSO (<0.1% of total volume) for 4 to 24 supplementary hours.
(§2) Cells were seeded in 25 cm^2 flasks the day before to reach 30-50% confluency at the time of transfection. The transfection INTERFERin™ reagent (Polyplus Transfection, Strasbourg. France) was added to siRNA diluted in Opti-MEM® reduced serum medium (Invitrogen, Cergy-Pontoise, France) and complexes formation was allowed to proceed for 15 min at RT before being applied to cells. The final siRNA concentration in the flasks was 20 nM.
After treatment, both detached and adherent cells were pooled after trypsinization, applied to a polylysine-coated glass slide by cytocentrifugation and fixed with a solution of ethanol/chloroform/acetic acid (6:3:1). The preparations were then incubated for 15 min at room temperature with 1 μg/ml DAPI solution (Boehringer Mannheim-Roche, Mannheim, Germany), washed in distillated water, mounted under a coverslip in Mowiol (Calbiochem) and analyzed under a fluorescence microscope (BX51, Olympus, Rungis, France).
Cells were fixed with 2.5% glutaraldehyde in PBS buffer, included in agar, rinsed in Sorensen's buffer, post-fixed in osmium tetroxide 1% in Sorensen's buffer, deshydrated in ethanol and embedded in EPON resin. Ultrathin sections were cut and stained with uranyl acetate and lead citrate and examined using a JEOL1011 transmission electron microscope.

For test [2] the test system is unchanged. Description: Trypan blue exclusion assay. It is filed as cell-based. To be noted: IGROV1-R10, Pyridoclax associated to siXL1.
The subject of test [3] is SKOV3 chemoresistant ovarian cancer cells. Description: Pyridoclax / ABT-737 association, apoptotic cell death. Format: cell-based, human. On the procedure: FIG. 4 represents the effect of the association of Pyridoclax with ABT-737 on chemoresistant ovarian cancer cells IGROV1-R10 (top) and SKOV3 (bottom). Cells were concomitantly (A, E) or sequentially (B) exposed to 25 μM Pyridoclax and 5 μM ABT-737, and cellular effects were assessed either longitudinally (A, B, E) or after 24 h (C, D, F). [A, B, E] real time cellular activity assessed by impedancmetry (xCELLigence technology), after concomitant exposure (A, E) or sequential exposure (B; 24 h Pyridoclax, then ABT-737). [C]: Cellular morphology and DNA content histograms after a 24 h concomitant exposure. [D and F]: PARP and caspase 3 cleavage after a 24 h concomitant exposure.
Adherent and floating cells were pooled, washed with 1×PBS and centrifuged at 200 g for 5 min before staining by Annexin V, propidium iodide or both, as recommended by the manufacturer (Roche Diagnostic, Indianapolis, USA). Briefly, 100 μl of Annexin V—Flit or propidium iodide or both were added on the cells pellet (10^6 cells) and incubated 15 minutes at room temperature in obscurity. 500 μl of sample buffer was then added on the suspensions that were thereafter analyzed using a Gallios flow cytometer (Beckman Coulter, Roissy, France) and cell cycle distribution was determined using Kaluza acquisition software (Beckman Coulter).
Cells were rinsed with ice-cold PBS, suspended in a lysis buffer [RIPA:NaCl 150 mM, Tris (pH 8) 50 mM, Triton X100 1%, PMSF 4 mM, EDTA 5 mM, NaF 10 mM, NaPPi 10 mM, Na3OV4 1 mM, aprotinin 0.5 μl/ml and 4.6 ml ultra pure water] and incubated on ice for 30 minutes. Lysates were collected after centrifugation (13200 g, 10 min, 4° C.) and protein concentrations were determined using the Bradford assay (Bio-Rad, Hercules, USA). 20 μg of protein were separated by SDS-PAGE on a 4-12% gradient polyacrylamide gel (Invitrogen, Cergy-Pontoise, France) and transferred to Hybond-PVDF membranes (Amersham, Orsay, France). […]

In another test the target is T1, Noxa/Mcl-1 interaction (Homo sapiens, UniProt Q07820).
T1 construct: expressed in transfected cells; host or cells: HeLa cells
T1 sequence (Q07820 whole entry): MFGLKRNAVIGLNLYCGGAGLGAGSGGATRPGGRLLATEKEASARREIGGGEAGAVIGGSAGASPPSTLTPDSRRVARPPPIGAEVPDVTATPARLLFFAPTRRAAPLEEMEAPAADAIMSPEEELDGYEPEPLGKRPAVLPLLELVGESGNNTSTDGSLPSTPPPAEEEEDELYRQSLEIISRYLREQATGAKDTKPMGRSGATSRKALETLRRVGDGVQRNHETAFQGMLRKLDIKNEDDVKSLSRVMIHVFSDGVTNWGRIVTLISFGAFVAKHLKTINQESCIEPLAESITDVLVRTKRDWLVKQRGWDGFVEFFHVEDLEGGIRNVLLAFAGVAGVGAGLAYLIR
Description: BRET assay, Noxa/Mcl-1 interaction. To be noted: BRET in Hela cells, 10 μM, 16 hours. It is filed as cell-based. The method, then:
Hela cells were seeded on 6-well plates and transfected with 200 ng/well of plasmid pRLuc-Bax, pRLuc-Puma or pRLuc-Noxa coding for BRET donors and 1 µg/well of peYFP-Bcl-xL or peYFP-Mcl-1 coding for BRET acceptors (or with pCMV-Bcl-xL or pCMV-Mcl-1 for control). Twenty-four hours after transfection, cells were trypsinized and re-seeded into white 96 well plate flat bottom, incubated for another day, and then treated with drugs for 16 hours at 10 μM. Light emission at 485 nm and 530 nm was measured consecutively using the Mithras fluorescence-luminescence detector LB 940 (Berthold) after adding the luciferase substrate, coelenterazine H (Uptima) at a final concentration of 5 μM. BRET ratios were calculated as described [Terrillon et al. (2003) Mol Endocrinol 17, 677-691, Vo et al. (2012) Eur J Med Chem., 286-93].

Test [4] relates to IGROV1-R10 ovarian cancer cells. Kind of test: Cellular morphology / cell detachment, molecule alone or with Bcl-xL targeting siRNA. Format: cell-based. On the procedure:
as §1, §2

Where [5] appears, read: IGROV1-R10, Pyridoclax associated to siXL1.

For `Cc1cc(-c2ncc(-c3cccnc3)cc2/C=C/c2ccccc2)cnc1-c1cccnc1` [Pyridoclax, 5,6′-di(pyridin-3-yl)-5′-methyl-3-((E)-styryl)-2,3′-bipyridine], the “nuclear morphology (DAPI staining and electron microscopy)” value in test [1] (setting [5]) is “nuclear condensations and fragmentations”. Besides, in test [1] (Molecule + Bcl-xL targeting siRNA, DAPI staining), the Apoptotic nuclear features entry is on record as “+++”. Besides, in test [2], the “number of viable cells” value is on record as “drastic decrease of the number of viable cells”. The “cell death, combination with ABT-737” value in test [3] (SKOV3, 25 μM Pyridoclax + 5 μM ABT-737) is “massive apoptotic cell death”. In addition, in test [3] (SKOV3, single agent), the “cell death as single agent” value was “neither ABT-737 nor Pyridoclax induced cell death as single agents”. On Noxa/Mcl-1 interaction, the “effect on Noxa/Mcl-1 interaction” value is “able to disrupt”. Also, the “effects in response to 10 μM” value in test [4] (IGROV1-R10, Pyridoclax 10 μM associated to siXL1 (data not shown)) is given as “also observed in a lower extend”. Also, in test [4] (setting [5]), the “Cell detachment” value is “strong cell detachment” and the “concentration at which effects are optimal” value turned out to be 25 µM. Further, in test [4] (IGROV1-R10, single agent), the “cell death, agent on its own” value is given as “neither Pyridoclax nor the Bcl-xL targeting siRNA (siXL1) induced massive cell death on their own”.
